Columns and labels:
[1] = test system: human peripheral blood mononuclear cells (hPBMC); experiment: human PBMC assay, Example 7 (oligo 20 μg/ml, cPLGA 100 μg/ml); type: cell-based; conditions: for immunomodulatory activity: combined with cPLGA; for IFN-α Mean / IFN-γ Mean: mean of donors 28115-28118
Description: (§1) Hexameric oligonucleotides were tested for immunomodulatory activity alone and complexed with lactic acid/glycolic acid copolymer microcarrier beads using a human peripheral blood mononuclear cells (hPBMC) assay. Peripheral blood was collected from healthy volunteers by venipuncture using heparinized syringes. Blood was layered onto a FICOLL® (Amersham Pharmacia Biotech) cushion and centrifuged. hPBMCs, located at the FICOLL® interface, were collected, then washed twice with cold phosphate buffered saline (PBS). The cells were resuspended and cultured in 48 well plates at 2×10^6 cells/mL at 37° C. in RPMI 1640 with 10% heat-inactivated human AB serum plus 50 units/mL penicillin, 50 μg/mL streptomycin, 300 μg/mL glutamine, 1 mM sodium pyruvate, and 1×MEM non-essential amino acids (NEAA).
(§2) Oligonucleotides were tested as single agents, or in combination with PLGA microspheres (unmodified or cationic). All oligonucleotides contained 100% phosphorothioate linkages and were tested at 20 μg/ml. The PLGA microcarriers were used at 250 μg/ml. When oligos were tested with PLGA microcarriers, the oligo and the microcarriers were added at the same time to the culture. The cells were cultured in the in the presence of test samples for 24 hours, then cell-free medium was collected from each well and assayed for IFN-γ and IFN-α concentration. Two different oligonucleotides were used as controls: a first oligonucleotide known to have immunostimulatory activity (a 22mer oligonucleotide containing an ISS (“ISS+,” 5′-[…]-3′(SEQ ID NO:2)) and a second oligonucleotide of similar sequence but lacking immunostimulatory activity (“ISS−,” 5′-[…]-3′ (SEQ ID NO:1)). SAC (PANSORBIN® CalBiochem, 1/5000 dilution) and a untreated culture were used as additional positive and negative controls, respectively. SAC contains Staph. aureus (Cowan I) cell material. All samples were assayed in duplicate.
(§3) IFN-γ and IFN-α were assayed using CYTOSCREEN™ ELISA kits from BioSource International, Inc., according to the manufacturer's instructions.
(§4) The immunomodulatory activity of the oligonucleotides used in Examples 3 and 4 was confirmed with the human PBMC assay using PBMCs from an additional four donors (donors 28051-28054). Oligonucleotides were tested alone or in combination with cationic PLGA as described in Example 3, except that 96 well plates were used instead of 48 well plates and the oligonucleotides were premixed with the cationic microspheres at room temperature for 15 minutes before they were added to the culture, rather than being added simultaneously to the culture.
Additional oligonucleotides, some incorporating modified bases, were tested for immunomodulatory activity in the human PBMC assay. Oligonucleotides were tested alone or in combination with cPLGA as described in Example 5. The oligonucleotides were premixed with the cationic PLGA microspheres for 15 minutes at room temperature at concentrations of 20 μg/ml and 100 μg/ml, respectively.

[2] = test system: human peripheral blood mononuclear cells (hPBMC); experiment: human PBMC assay, Example 6; type: cell-based
Description: as §1, §2, §3, §4
Additional oligonucleotides were tested for immunomodulatory activity in the human PBMC assay. Oligonucleotides were tested alone or in combination with cPLGA as described in Example 5.
Additional oligonucleotides were tested using hPBMCs from volunteers 154-157 using the same assay. Results, which are shown in Table 7, confirm the activity of oligonucleotides fitting the formula 5′-X1TCGX2-3′, where the oligonucleotide is a 3-6mer, X1 is zero or one nucleotide and X2 is zero to three nucleotides.

[3] = delivered as oligonucleotide/MC complex (cPLGA)

## 5′-AATCGT-3′ [Oligonucleotide 6-25]
[1]
  immunomodulatory activity: active
  IFN-α Mean: 2 pg/mL
  IFN-γ Mean: 7 pg/mL
[1]; donor 28115
  IFN-α: 7 pg/mL
  IFN-γ: 2 pg/mL
[1]; donor 28116
  IFN-α: 0 pg/mL
  IFN-γ: 15 pg/mL
[1]; donor 28117
  IFN-α: 0 pg/mL
  IFN-γ: 11 pg/mL
[1]; donor 28118
  IFN-α: 0 pg/mL
  IFN-γ: 0 pg/mL

## 5′-ACGTTT-3′ [Oligonucleotide 6-13]
[2]; delivered alone
  immunomodulatory activity: inactive
[2]; [3]
  immunomodulatory activity: inactive
[2]; donor 28075
  IFN-α: 10 pg/mL
  IFN-γ: 8 pg/mL
[2]; donor 28076
  IFN-α: 39 pg/mL
  IFN-γ: 225 pg/mL
[2]; donor 28077
  IFN-α: 28 pg/mL
  IFN-γ: 18 pg/mL
[2]; donor 28078
  IFN-α: 34 pg/mL
  IFN-γ: 15 pg/mL
[2]; mean of donors 28075-28078
  IFN-α Mean: 28 pg/mL
  IFN-γ Mean: 67 pg/mL

## 5′-CCGTTT-3′ [Oligonucleotide 6-14]
[2]; delivered alone
  immunomodulatory activity: inactive
[2]; [3]
  immunomodulatory activity: inactive
[2]; donor 28075
  IFN-α: 15 pg/mL
  IFN-γ: 11 pg/mL
[2]; donor 28076
  IFN-α: 51 pg/mL
  IFN-γ: 12 pg/mL
[2]; donor 28077
  IFN-α: 9 pg/mL
  IFN-γ: 14 pg/mL
[2]; donor 28078
  IFN-α: 230 pg/mL
  IFN-γ: 11 pg/mL
[2]; mean of donors 28075-28078
  IFN-α Mean: 76 pg/mL
  IFN-γ Mean: 12 pg/mL

## 5′-CGATCG-3′ [Oligonucleotide 6-11]
[2]; mean of volunteers 154-157
  IFN-α Mean: 0 pg/mL
  IFN-γ Mean: 3 pg/mL
[2]; volunteer 154
  IFN-α: 0 pg/mL
  IFN-γ: 0 pg/mL
[2]; volunteer 155
  IFN-α: 0 pg/mL
  IFN-γ: 0 pg/mL
[2]; volunteer 156
  IFN-α: 0 pg/mL
  IFN-γ: 10 pg/mL
[2]; volunteer 157
  IFN-α: 0 pg/mL
  IFN-γ: 0 pg/mL

## 5′-GACGTT-3′ [Oligonucleotide 6-17, reference compound]
[2]; [3]
  immunomodulatory activity: largely inactive
[2]; mean of volunteers 154-157
  IFN-α Mean: 0 pg/mL
  IFN-γ Mean: 4 pg/mL
[2]; volunteer 154
  IFN-α: 0 pg/mL
  IFN-γ: 0 pg/mL
[2]; volunteer 155
  IFN-α: 0 pg/mL
  IFN-γ: 0 pg/mL
[2]; volunteer 156
  IFN-α: 0 pg/mL
  IFN-γ: 16 pg/mL
[2]; volunteer 157
  IFN-α: 0 pg/mL
  IFN-γ: 0 pg/mL

## 5′-GCGTTT-3′ [Oligonucleotide 6-15]
[2]; delivered alone
  immunomodulatory activity: inactive
[2]; [3]
  immunomodulatory activity: inactive
[2]; donor 28075
  IFN-α: 36 pg/mL
  IFN-γ: 11 pg/mL
[2]; donor 28076
  IFN-α: 9 pg/mL
  IFN-γ: 12 pg/mL
[2]; donor 28077
  IFN-α: 35 pg/mL
  IFN-γ: 15 pg/mL
[2]; donor 28078
  IFN-α: 36 pg/mL
  IFN-γ: 11 pg/mL
[2]; mean of donors 28075-28078
  IFN-α Mean: 29 pg/mL
  IFN-γ Mean: 13 pg/mL

## 5′-TCCGGA-3′ [Oligonucleotide 6-18, reference compound]
[2]; [3]
  immunomodulatory activity: largely inactive
[2]; mean of volunteers 154-157
  IFN-α Mean: 0 pg/mL
  IFN-γ Mean: 4 pg/mL
[2]; volunteer 154
  IFN-α: 0 pg/mL
  IFN-γ: 0 pg/mL
[2]; volunteer 155
  IFN-α: 0 pg/mL
  IFN-γ: 0 pg/mL
[2]; volunteer 156
  IFN-α: 0 pg/mL
  IFN-γ: 15 pg/mL
[2]; volunteer 157
  IFN-α: 0 pg/mL
  IFN-γ: 0 pg/mL

## 5′-TCCTTT-3′ [Oligonucleotide 6-20, reference compound]
[2]; mean of volunteers 154-157
  IFN-α Mean: 0 pg/mL
  IFN-γ Mean: 3 pg/mL
[2]; volunteer 154
  IFN-α: 0 pg/mL
  IFN-γ: 0 pg/mL
[2]; volunteer 155
  IFN-α: 0 pg/mL
  IFN-γ: 0 pg/mL
[2]; volunteer 156
  IFN-α: 0 pg/mL
  IFN-γ: 13 pg/mL
[2]; volunteer 157
  IFN-α: 0 pg/mL
  IFN-γ: 0 pg/mL
[1]; donor 28115
  IFN-α: 0 pg/mL
  IFN-γ: 6 pg/mL
[1]; donor 28116
  IFN-α: 0 pg/mL
  IFN-γ: 3 pg/mL
[1]; donor 28117
  IFN-α: 0 pg/mL
  IFN-γ: 9 pg/mL
[1]; donor 28118
  IFN-α: 0 pg/mL
  IFN-γ: 0 pg/mL
[1]
  IFN-α Mean: 0 pg/mL
  IFN-γ Mean: 5 pg/mL

## 5′-TCG-3′ [Oligonucleotide 3-1]
[2]; [3]
  immunomodulatory activity: active in two out of four donors
[2]; donor 28075
  IFN-α: 0 pg/mL
  IFN-γ: 7 pg/mL
[2]; donor 28076
  IFN-α: 0 pg/mL
  IFN-γ: 11 pg/mL
[2]; donor 28077
  IFN-α: 4 pg/mL
  IFN-γ: 12 pg/mL
[2]; donor 28078
  IFN-α: 11 pg/mL
  IFN-γ: 15 pg/mL
[2]; mean of donors 28075-28078
  IFN-α Mean: 4 pg/mL
  IFN-γ Mean: 11 pg/mL

## 5′-TCGCGA-3′ [Oligonucleotide 6-10]
[2]; mean of volunteers 154-157
  IFN-α Mean: 0 pg/mL
  IFN-γ Mean: 4 pg/mL
[2]; volunteer 154
  IFN-α: 0 pg/mL
  IFN-γ: 0 pg/mL
[2]; volunteer 155
  IFN-α: 0 pg/mL
  IFN-γ: 0 pg/mL
[2]; volunteer 156
  IFN-α: 0 pg/mL
  IFN-γ: 15 pg/mL
[2]; volunteer 157
  IFN-α: 0 pg/mL
  IFN-γ: 0 pg/mL

## 5′-TCGT-3′ [Oligonucleotide 4-1]
[2]; [3]
  immunomodulatory activity: active in two out of four donors
[2]; donor 28075
  IFN-α: 0 pg/mL
  IFN-γ: 9 pg/mL
[2]; donor 28076
  IFN-α: 3 pg/mL
  IFN-γ: 12 pg/mL
[2]; donor 28077
  IFN-α: 0 pg/mL
  IFN-γ: 14 pg/mL
[2]; donor 28078
  IFN-α: 10 pg/mL
  IFN-γ: 14 pg/mL
[2]; mean of donors 28075-28078
  IFN-α Mean: 3 pg/mL
  IFN-γ Mean: 12 pg/mL

## 5′-TCGTCG-3′ [Oligonucleotide 6-12]
[2]; [3]
  immunomodulatory activity: highly active
[2]; donor 28075
  IFN-α: 5 pg/mL
  IFN-γ: 8 pg/mL
[2]; donor 28076
  IFN-α: 3 pg/mL
  IFN-γ: 13 pg/mL
[2]; donor 28077
  IFN-α: 187 pg/mL
  IFN-γ: 13 pg/mL
[2]; donor 28078
  IFN-α: 181 pg/mL
  IFN-γ: 18 pg/mL
[2]; mean of donors 28075-28078
  IFN-α Mean: 94 pg/mL
  IFN-γ Mean: 13 pg/mL

## 5′-TTCGT-3′ [Oligonucleotide 5-3]
[1]
  immunomodulatory activity: active in two of four donors
  IFN-α Mean: 3 pg/mL
  IFN-γ Mean: 12 pg/mL
[1]; donor 28115
  IFN-α: 10 pg/mL
  IFN-γ: 26 pg/mL
[1]; donor 28116
  IFN-α: 0 pg/mL
  IFN-γ: 4 pg/mL
[1]; donor 28117
  IFN-α: 0 pg/mL
  IFN-γ: 17 pg/mL
[1]; donor 28118
  IFN-α: 0 pg/mL
  IFN-γ: 0 pg/mL

## 5′-TTTTCG-3′ [Oligonucleotide 6-5]
[2]; mean of volunteers 154-157
  IFN-α Mean: 0 pg/mL
  IFN-γ Mean: 3 pg/mL
[2]; volunteer 154
  IFN-α: 0 pg/mL
  IFN-γ: 0 pg/mL
[2]; volunteer 155
  IFN-α: 0 pg/mL
  IFN-γ: 0 pg/mL
[2]; volunteer 156
  IFN-α: 0 pg/mL
  IFN-γ: 11 pg/mL
[2]; volunteer 157
  IFN-α: 0 pg/mL
  IFN-γ: 0 pg/mL

## 5′-UCGTTT-3′ [Oligonucleotide 6-21]
[1]
  immunomodulatory activity: active
  IFN-α Mean: 0 pg/mL
  IFN-γ Mean: 8 pg/mL
[1]; donor 28115
  IFN-α: 0 pg/mL
  IFN-γ: 27 pg/mL
[1]; donor 28116
  IFN-α: 0 pg/mL
  IFN-γ: 0 pg/mL
[1]; donor 28117
  IFN-α: 0 pg/mL
  IFN-γ: 7 pg/mL
[1]; donor 28118
  IFN-α: 0 pg/mL
  IFN-γ: 0 pg/mL
